Two compounds from ChEMBL document CHEMBL3621069 (Bioorg Med Chem Lett, 2015) can be followed below.

SMILES strings stand for the structures.

In general, IC50 refers to the concentration that inhibits the measured activity by half. Higher therefore signals lower potency. A word on the inhibition: it is the change of the read-out against control, counted positive when it falls. The low end stands for a response near the control, the high end for a response far below the control. The term clearance denotes the rate of elimination divided by the concentration. What is called AUC(0-t) is the area under the concentration-time curve up to a stated or last time point. For orientation: bioavailability means the share of a dose that reaches the circulation, judged against a reference dose that is usually intravenous. A high value points to much systemic uptake. For orientation: inhibition in vivo means the share of the control response that was lost under treatment.

For data set [1], the target named is T1, Tyrosine-protein kinase ZAP-70 (Homo sapiens, UniProt P43403).
T1 sequence (P43403 whole entry): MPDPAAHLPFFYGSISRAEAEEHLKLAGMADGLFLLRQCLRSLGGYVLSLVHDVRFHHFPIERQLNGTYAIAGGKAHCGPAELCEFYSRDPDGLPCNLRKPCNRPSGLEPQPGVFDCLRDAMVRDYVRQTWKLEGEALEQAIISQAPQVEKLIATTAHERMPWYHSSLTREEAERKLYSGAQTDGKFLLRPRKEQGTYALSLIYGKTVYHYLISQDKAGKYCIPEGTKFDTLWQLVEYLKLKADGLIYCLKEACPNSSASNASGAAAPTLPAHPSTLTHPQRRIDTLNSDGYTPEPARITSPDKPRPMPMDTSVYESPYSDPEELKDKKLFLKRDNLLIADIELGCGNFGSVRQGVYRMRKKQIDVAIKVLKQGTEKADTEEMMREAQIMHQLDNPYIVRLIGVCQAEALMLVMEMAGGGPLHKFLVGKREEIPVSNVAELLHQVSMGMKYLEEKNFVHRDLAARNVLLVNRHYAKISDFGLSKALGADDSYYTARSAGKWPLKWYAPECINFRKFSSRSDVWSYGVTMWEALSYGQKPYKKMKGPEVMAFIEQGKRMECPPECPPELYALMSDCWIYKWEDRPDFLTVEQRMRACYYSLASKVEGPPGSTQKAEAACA
The experiment in a line: Inhibition of purified full-length human ZAP70 pre-incubated for 30 mins at room temperature before UlighTM-PolyGT peptide substrate addition and measured 1 hr after substrate addition by cell free kinase assay.

For data set [2], the target named is Proto-oncogene tyrosine-protein kinase receptor Ret (Homo sapiens, UniProt P07949). The experiment in a line: Inhibition of human RET pre-incubated for 30 mins at room temperature before substrate addition and measured 1 hr after substrate addition by cell free kinase assay.
The target in data set [3] is Mitogen-activated protein kinase kinase kinase 9 (Homo sapiens) (UniProt P80192). Briefly: Inhibition of human MLK1 at 0.1 uM.
For data set [4], the target named is Voltage-gated inwardly rectifying potassium channel KCNH2 (Homo sapiens, UniProt Q12809). The experiment in a line: Inhibition of human ERG by manual patch clamp assay. A general note: The patch-clamp technique gives a direct electrical read-out from membranes.
Data set [5] relates to Salmonella typhimurium. The experiment in a line: Genotoxicity in Salmonella typhimurium TA100 at 5000 µg/plate in absence of liver S9 fraction by Ames test. It counts as toxicity, organism-based. To be noted: salmonella enterica subsp. enterica serovar typhimurium. A general note: The Ames test detects mutagens through reverse mutation in bacteria.
The test system of data set [6] is Salmonella typhimurium. The experiment in a line: Genotoxicity in Salmonella typhimurium TA1537 at 5000 µg/plate in presence of liver S9 fraction by Ames test. It is filed as toxicity, organism-based. To be noted: salmonella enterica subsp. enterica serovar typhimurium.
Data set [7] can be described thus: Clearance in dog at 5 mg/kg, iv. It counts as ADME, organism-based, Canis lupus familiaris. To be noted: in vivo.
The nature of data set [8]: Volume of distribution at steady state in dog at 5 mg/kg, iv. It is filed as ADME, organism-based, Canis lupus familiaris. The following applies: in vivo, read-out: Vdss.
Data set [9] in a line: AUClast in dog at 5 mg/kg, iv. It is filed as ADME, organism-based, Canis lupus familiaris. Also noted: dose 5 mg/kg, time 0 - last, route intravenous. The following applies: in vivo.
The nature of data set [10]: AUClast in dog at 10 mg/kg, po. Also noted: dose 10 mg/kg, route oral, time 0 - last. It is filed as ADME, organism-based, Canis lupus familiaris. To be noted: in vivo.
A short description of data set [11]: Oral bioavailability in dog at 10 mg/kg. It is filed as ADME, organism-based, Canis lupus familiaris. The following applies: in vivo.
Data set [12] deals with Mus musculus. Briefly: Anti-arthritic activity in DBA1/J mouse model of collagen-induced arthritis assessed as reduction in arthritis clinical scores at 10 mg/kg, po administered orally continued once daily and twice daily through study. It counts as functional.
Data set [13] relates to Mus musculus. The experiment in a line: Anti-arthritic activity in DBA1/J mouse model of collagen-induced arthritis assessed as reduction in arthritis clinical scores at 30 mg/kg, po administered orally continued once daily and twice daily through study. It is filed as functional.
Data set [14] concerns Tyrosine-protein kinase ABL1 (Homo sapiens), P00519 [Q252H]. Briefly: Inhibition of human Abl Q252H mutant at 0.1 uM.
Data set [15] deals with Epidermal growth factor receptor (Homo sapiens), P00533 [T790M]. The experiment in a line: Inhibition of human EGFR T790M mutant at 0.1 uM. It counts as protein assay.
Data set [16] deals with Epidermal growth factor receptor (Homo sapiens), P00533 [L858R,T790M]. The experiment in a line: Inhibition of human EGFR T790M/L858R mutant at 0.1 uM. It is filed as protein assay.
The subject of data set [17] is Receptor-type tyrosine-protein kinase FLT3 (Homo sapiens), P36888 [D835Y]. The experiment in a line: Inhibition of human Flt3 D835Y mutant at 0.1 uM.
Data set [18] concerns the target Serine/threonine-protein kinase PLK3 (Homo sapiens) (UniProt Q9H4B4). Briefly: Inhibition of human Plk3 at 0.1 uM.
Data set [19] has as its target Tyrosine-protein kinase Fyn (Homo sapiens) (UniProt P06241). Briefly: Inhibition of human Fyn (unknown origin) at 0.1 uM.
For data set [20], the target named is Tyrosine-protein kinase Lck (Homo sapiens) (UniProt P06239). The experiment in a line: Inhibition of human Lck at 0.1 uM.
Data set [21] has as its target Tyrosine-protein kinase Lyn (Homo sapiens) (UniProt P07948). Briefly: Inhibition of human Lyn at 0.1 uM.
Data set [22] addresses Tyrosine-protein kinase Yes (Homo sapiens) (UniProt P07947). The experiment in a line: Inhibition of human Yes at 0.1 uM.
For data set [23], the target named is Proto-oncogene tyrosine-protein kinase Src (Homo sapiens) (UniProt P12931). The experiment in a line: Inhibition of human Src (1 to 530 residues) at 0.1 uM.
For data set [24], the system named is Proto-oncogene tyrosine-protein kinase Src (Homo sapiens), P12931 [T341M]. Briefly: Inhibition of human Src T341M mutant at 0.1 uM.
Data set [25] deals with Tyrosine-protein kinase HCK (Homo sapiens) (UniProt P08631). The experiment in a line: Inhibition of human Hck at 0.1 uM.
The target in data set [26] is Tyrosine-protein kinase Blk (Homo sapiens) (UniProt P51451). Briefly: Inhibition of human Blk at 0.1 uM.
The subject of data set [27] is Tyrosine-protein kinase ABL1 (Homo sapiens), P00519 [Q252H]. Briefly: Inhibition of human Abl Q252H mutant at 0.01 uM.
The test system of data set [28] is Epidermal growth factor receptor (Homo sapiens), P00533 [T790M]. The experiment in a line: Inhibition of human EGFR T790M mutant at 0.01 uM. It counts as protein assay.
The subject of data set [29] is Epidermal growth factor receptor (Homo sapiens), P00533 [L858R,T790M]. Briefly: Inhibition of human EGFR T790M/L858R mutant at 0.01 uM. It counts as protein assay.
Data set [30] has as its system Proto-oncogene tyrosine-protein kinase receptor Ret (Homo sapiens), P07949 [V804L]. To be noted: 0.1 uM.
Description: Inhibition of human Ret V804L mutant at 0.1 uM
In data set [31] the test system is Proto-oncogene tyrosine-protein kinase receptor Ret (Homo sapiens), P07949 [V804M]. The following applies: 0.1 uM.
Description: Inhibition of human Ret V804M mutant at 0.1 uM
Data set [32] has as its system Proto-oncogene tyrosine-protein kinase receptor Ret (Homo sapiens), P07949 [V804L]. The following applies: 0.01 uM.
Description: Inhibition of human Ret V804L mutant at 0.01 uM
The subject of data set [33] is Proto-oncogene tyrosine-protein kinase receptor Ret (Homo sapiens), P07949 [V804M]. The following applies: 0.01 uM.
Description: Inhibition of human Ret V804M mutant at 0.01 uM
Data set [34] deals with T2, Tyrosine-protein kinase SYK (Homo sapiens, UniProt P43405). The experiment in a line: Inhibition of purified full-length human SYK pre-incubated for 30 mins at room temperature before Ulight-TK peptide substrate addition and measured 1 hr after substrate addition by cell free kinase assay.
The target in data set [35] is T2, Tyrosine-protein kinase SYK. Briefly: Inhibition of SYK-mediated TNFalpha production in human IgG-stimulated human THP1 cells incubated for 18 hrs by ELISA method. It counts as cell-based, THP-1.
In data set [36] the target is Vascular endothelial growth factor receptor 2 (Homo sapiens, UniProt P35968). Briefly: Inhibition of KDR (unknown origin) pre-incubated for 30 mins at room temperature before substrate addition and measured 1 hr after substrate addition by cell free kinase assay.

Sequence of Proto-oncogene tyrosine-protein kinase receptor Ret (Homo sapiens), P07949 [V804M] (P07949 whole entry V804M): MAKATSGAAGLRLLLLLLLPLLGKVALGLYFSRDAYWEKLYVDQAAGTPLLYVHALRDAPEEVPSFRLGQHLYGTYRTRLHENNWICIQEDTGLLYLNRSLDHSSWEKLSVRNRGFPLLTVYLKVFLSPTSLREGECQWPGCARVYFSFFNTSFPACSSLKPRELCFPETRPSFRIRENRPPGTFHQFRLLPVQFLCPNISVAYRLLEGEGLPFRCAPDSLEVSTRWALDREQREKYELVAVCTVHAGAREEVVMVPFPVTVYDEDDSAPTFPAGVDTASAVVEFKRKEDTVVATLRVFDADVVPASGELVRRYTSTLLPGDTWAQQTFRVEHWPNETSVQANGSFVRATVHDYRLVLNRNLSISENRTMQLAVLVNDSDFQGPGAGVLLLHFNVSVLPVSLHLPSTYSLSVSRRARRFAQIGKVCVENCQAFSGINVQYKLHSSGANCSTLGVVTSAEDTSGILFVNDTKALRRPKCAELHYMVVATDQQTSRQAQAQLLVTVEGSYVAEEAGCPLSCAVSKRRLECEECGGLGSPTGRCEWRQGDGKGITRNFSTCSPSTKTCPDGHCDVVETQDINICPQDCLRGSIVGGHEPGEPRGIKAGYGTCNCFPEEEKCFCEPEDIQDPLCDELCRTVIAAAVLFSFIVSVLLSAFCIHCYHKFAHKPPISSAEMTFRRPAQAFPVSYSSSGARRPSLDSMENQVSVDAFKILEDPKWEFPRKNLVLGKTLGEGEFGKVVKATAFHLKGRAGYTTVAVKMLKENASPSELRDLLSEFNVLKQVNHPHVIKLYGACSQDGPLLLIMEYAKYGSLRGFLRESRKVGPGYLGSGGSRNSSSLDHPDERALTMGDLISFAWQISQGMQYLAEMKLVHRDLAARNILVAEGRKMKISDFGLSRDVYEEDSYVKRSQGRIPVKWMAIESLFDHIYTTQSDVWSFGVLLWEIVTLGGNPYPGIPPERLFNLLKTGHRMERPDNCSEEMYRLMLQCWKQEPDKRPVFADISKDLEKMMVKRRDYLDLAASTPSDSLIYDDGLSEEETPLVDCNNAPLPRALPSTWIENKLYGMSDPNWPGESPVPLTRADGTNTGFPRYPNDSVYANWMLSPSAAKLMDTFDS
Sequence of Proto-oncogene tyrosine-protein kinase receptor Ret (Homo sapiens), P07949 [V804L] (P07949 whole entry V804L): as the sequence (P07949 whole entry V804M) above, with M804L counted along it
Sequence of Epidermal growth factor receptor (Homo sapiens), P00533 [L858R,T790M] (P00533 whole entry T790M/L858R, looked up): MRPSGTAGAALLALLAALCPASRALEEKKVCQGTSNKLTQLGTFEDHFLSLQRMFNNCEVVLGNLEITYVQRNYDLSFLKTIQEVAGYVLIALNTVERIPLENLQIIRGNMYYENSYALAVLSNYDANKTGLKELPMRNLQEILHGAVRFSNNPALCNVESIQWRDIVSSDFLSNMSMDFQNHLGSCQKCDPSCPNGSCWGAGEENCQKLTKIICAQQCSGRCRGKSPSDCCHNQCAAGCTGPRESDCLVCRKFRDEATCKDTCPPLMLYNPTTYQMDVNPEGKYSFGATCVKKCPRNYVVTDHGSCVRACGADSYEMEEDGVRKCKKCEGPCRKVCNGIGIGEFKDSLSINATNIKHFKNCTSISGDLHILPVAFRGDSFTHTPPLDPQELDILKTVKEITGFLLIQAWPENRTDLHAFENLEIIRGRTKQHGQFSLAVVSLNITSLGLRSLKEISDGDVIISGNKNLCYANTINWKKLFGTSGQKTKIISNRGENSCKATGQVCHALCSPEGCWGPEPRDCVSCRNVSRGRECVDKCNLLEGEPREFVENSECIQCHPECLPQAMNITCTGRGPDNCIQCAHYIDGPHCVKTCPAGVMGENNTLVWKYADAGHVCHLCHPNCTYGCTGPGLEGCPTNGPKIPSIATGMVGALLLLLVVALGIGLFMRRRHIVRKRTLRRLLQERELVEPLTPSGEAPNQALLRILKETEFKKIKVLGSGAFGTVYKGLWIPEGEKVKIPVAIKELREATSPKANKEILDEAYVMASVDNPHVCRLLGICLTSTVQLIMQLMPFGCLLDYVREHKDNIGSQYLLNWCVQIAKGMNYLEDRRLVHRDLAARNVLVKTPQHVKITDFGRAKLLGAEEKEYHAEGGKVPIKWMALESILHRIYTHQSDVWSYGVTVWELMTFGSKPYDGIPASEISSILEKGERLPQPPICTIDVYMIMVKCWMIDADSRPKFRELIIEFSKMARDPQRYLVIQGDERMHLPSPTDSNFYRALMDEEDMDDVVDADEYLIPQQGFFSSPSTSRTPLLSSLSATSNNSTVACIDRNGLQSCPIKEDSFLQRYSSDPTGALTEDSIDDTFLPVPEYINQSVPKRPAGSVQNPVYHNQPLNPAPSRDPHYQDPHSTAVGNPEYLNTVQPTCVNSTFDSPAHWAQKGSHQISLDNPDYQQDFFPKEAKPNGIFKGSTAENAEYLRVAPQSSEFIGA
Sequence of Epidermal growth factor receptor (Homo sapiens), P00533 [T790M] (P00533 whole entry T790M): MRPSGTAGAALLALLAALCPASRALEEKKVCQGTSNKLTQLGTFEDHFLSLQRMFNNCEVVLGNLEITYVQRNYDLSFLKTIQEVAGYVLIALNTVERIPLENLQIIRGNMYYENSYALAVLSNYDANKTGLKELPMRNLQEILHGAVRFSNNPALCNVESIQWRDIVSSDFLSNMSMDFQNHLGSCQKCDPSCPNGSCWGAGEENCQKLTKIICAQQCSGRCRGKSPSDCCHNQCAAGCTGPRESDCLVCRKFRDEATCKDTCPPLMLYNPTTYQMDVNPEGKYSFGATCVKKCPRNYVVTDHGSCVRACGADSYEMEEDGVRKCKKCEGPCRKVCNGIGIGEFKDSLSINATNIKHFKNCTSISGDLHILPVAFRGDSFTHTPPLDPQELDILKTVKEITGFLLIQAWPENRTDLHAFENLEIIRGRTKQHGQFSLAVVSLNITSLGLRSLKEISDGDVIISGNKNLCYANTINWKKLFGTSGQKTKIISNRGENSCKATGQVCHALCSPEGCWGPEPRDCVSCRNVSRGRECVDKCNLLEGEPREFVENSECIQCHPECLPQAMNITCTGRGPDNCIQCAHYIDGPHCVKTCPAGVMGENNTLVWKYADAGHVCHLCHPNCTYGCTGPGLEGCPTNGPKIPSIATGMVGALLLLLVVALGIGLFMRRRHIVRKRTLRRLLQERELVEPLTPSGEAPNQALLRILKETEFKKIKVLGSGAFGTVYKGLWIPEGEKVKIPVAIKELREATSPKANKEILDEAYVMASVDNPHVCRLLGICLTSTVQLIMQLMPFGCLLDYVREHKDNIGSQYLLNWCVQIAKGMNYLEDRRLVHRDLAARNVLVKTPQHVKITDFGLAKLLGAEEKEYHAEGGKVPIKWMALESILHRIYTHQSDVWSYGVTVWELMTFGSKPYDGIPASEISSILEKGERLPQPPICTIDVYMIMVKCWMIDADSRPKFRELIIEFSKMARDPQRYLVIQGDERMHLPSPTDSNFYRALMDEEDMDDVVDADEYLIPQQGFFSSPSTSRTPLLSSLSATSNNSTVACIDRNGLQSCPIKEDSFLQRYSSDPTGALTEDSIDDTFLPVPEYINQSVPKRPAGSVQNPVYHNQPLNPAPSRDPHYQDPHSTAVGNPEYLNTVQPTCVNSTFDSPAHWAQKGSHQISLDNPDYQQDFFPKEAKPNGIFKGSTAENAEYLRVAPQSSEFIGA
Sequence of Tyrosine-protein kinase Blk (Homo sapiens) (P51451 2-505 limits assumed): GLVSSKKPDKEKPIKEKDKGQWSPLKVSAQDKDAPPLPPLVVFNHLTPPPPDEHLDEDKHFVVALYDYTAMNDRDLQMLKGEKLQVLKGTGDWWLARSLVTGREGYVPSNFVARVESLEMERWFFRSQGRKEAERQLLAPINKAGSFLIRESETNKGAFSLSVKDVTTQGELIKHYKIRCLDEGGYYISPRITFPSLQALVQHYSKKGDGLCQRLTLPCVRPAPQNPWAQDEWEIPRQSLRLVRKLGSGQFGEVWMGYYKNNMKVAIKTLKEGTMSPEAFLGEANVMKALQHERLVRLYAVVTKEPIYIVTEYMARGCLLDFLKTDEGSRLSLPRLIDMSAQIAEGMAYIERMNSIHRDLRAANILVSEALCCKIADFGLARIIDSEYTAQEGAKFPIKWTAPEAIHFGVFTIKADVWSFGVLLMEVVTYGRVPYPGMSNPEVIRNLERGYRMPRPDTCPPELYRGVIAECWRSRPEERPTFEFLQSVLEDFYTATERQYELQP
Sequence of Proto-oncogene tyrosine-protein kinase receptor Ret (P07949 whole entry): as the sequence (P07949 whole entry V804M) above, with M804V counted along it
Sequence of Tyrosine-protein kinase HCK (Homo sapiens) (P08631 2-526 limits assumed): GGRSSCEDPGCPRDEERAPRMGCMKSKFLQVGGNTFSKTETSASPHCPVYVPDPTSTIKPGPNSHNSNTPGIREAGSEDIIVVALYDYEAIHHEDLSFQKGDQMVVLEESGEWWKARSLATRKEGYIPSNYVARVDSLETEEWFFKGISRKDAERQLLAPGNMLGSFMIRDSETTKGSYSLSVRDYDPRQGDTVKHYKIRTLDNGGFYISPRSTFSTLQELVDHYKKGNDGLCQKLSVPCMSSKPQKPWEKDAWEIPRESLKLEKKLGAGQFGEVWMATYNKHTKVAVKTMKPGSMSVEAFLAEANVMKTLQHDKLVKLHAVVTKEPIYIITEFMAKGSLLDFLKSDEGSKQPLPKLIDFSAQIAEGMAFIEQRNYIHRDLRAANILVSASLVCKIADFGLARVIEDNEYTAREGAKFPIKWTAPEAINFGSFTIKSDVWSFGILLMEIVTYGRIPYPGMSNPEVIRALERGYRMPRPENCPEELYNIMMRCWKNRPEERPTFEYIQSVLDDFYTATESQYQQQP

Consider `Cc1nn(-c2ccnc(Nc3ccc4c(c3)c(Cl)c(C)n4C)n2)cc1CN1CC(O)C1`, for which the values for the 50% inhibitory concentration (IC50) in data set [1], in data set [2] and in data set [4] were 53800 nM, 67.8 nM and 24200 nM, respectively. The inhibition in data set [3] was 91%; in data set [14], above 70%; in data set [15], above 70%; in data set [16], above 70%; in data set [17], above 70%; in data set [18] it was above 70%. The inhibition in data set [19], in data set [20], in data set [21], in data set [22], in [23] and in [24] was below 25% each time. The inhibition in [25] was below 25%; in data set [26], below 25%; in data set [27] it was below 50%; in data set [28], below 50%; in [29] it was below 50%; in data set [30], above 70%. Also, the figures for the inhibition in data set [31], in [32] and in data set [33] were above 70%, below 50% and below 50%, respectively. For the same compound, the Activity result in the data set on Salmonella typhimurium [5] and in the data set on Salmonella typhimurium [6] was “Non-toxic” throughout. In [7], the clearance was 40.4 mL/min/kg. Also, the Vd in data set [8] stood at 7.1 L/kg. Further, the AUC(0-t) in data set [9] was determined as 2090 ng·h/mL; in [10] it was 1940 ng·h/mL. Moreover, in data set [11], the bioavailability was 46.4%. Also, the inhibition in vivo at 10 mg/kg with Mus musculus [12] was 30%. For the same compound, the inhibition in vivo at 30 mg/kg in the data set with Mus musculus [13] worked out at 50%.

Regarding `Cc1nn(-c2ccnc(Nc3ccc4c(c3)c(C)c(C)n4C)n2)cc1CN1CC(O)C1`, the IC50 in data set [34] came to 1.7 nM; in [35], 56 nM; in data set [1], 996000 nM; in [36], 653 nM. Moreover, the Activity result with Salmonella typhimurium [5] and in the data set with Salmonella typhimurium [6] was “Non-toxic” throughout.
